Values after ≈ are worked out from the molar mass of the structure shown.
Key:
Staphylococcus aureus [1] = assay: Antibacterial activity against methicillin-resistant Staphylococcus aureus; assay type: functional
Staphylococcus aureus [2] = assay: Antibacterial activity against methicillin-resistant Staphylococcus aureus 4N216 infected in mouse assessed as endurance rate at 20 mg/kg, iv relative to control; assay type: functional
[3] = Inhibition of methicillin-resistant Staphylococcus aureus pyruvate kinase
Staphylococcus aureus [4] = assay: Antibacterial activity against Staphylococcus aureus assessed as inhibition of bacterial growth; assay type: functional
Staphylococcus aureus [5] = assay: Antibacterial activity against methicillin-resistant Staphylococcus aureus 8 assessed as inhibition of bacterial growth; assay type: functional
Staphylococcus aureus [6] = assay: Antibacterial activity against methicillin-resistant Staphylococcus aureus 12 assessed as inhibition of bacterial growth; assay type: functional
Staphylococcus aureus [7] = assay: Antibacterial activity against methicillin-resistant Staphylococcus aureus 6 assessed as inhibition of bacterial growth; assay type: functional
Staphylococcus aureus [8] = assay: Antibacterial activity against methicillin-resistant Staphylococcus aureus 4 assessed as inhibition of bacterial growth; assay type: functional
Staphylococcus aureus [9] = assay: Antibacterial activity against methicillin-resistant Staphylococcus aureus 9 assessed as inhibition of bacterial growth; assay type: functional
Staphylococcus aureus [10] = assay: Antibacterial activity against methicillin-resistant Staphylococcus aureus 3 assessed as inhibition of bacterial growth; assay type: functional
Staphylococcus aureus [11] = assay: Antibacterial activity against methicillin-resistant Staphylococcus aureus 11 assessed as inhibition of bacterial growth; assay type: functional
Staphylococcus aureus [12] = assay: Antibacterial activity against Staphylococcus aureus ATCC 25923 assessed as inhibition of bacterial growth by agar well diffusion method; assay type: functional

| SMILES | MIC (Staphylococcus aureus [1]) [µg/mL] | other results |
| --- | --- | --- |
| CCn1cc(Br)c2c3c(-c4ccc(OC)cc4)occ3ccc21 | 1.4 (≈ 3.78 µM) |  |
| Cl.OC(CNCCc1c[nH]c2cc(F)ccc12)Cn1c2ccc(Cl)cc2c2cc(Cl)ccc21 (stereo unspecified) |  | Activity (Staphylococcus aureus [2]): 75% |
| O=C(C1=N[C@H](c2c[nH]c3cc(Br)ccc23)CN1)c1c[nH]c2ccccc12 |  | IC50 [3]: 16 nM |
| OCc1cc(-c2c[nH]c3ccc(Br)cc23)nc2cc(Cl)ccc12 | < 1 |  |
| Clc1ccc(-n2nc(C3CCNCC3)cc2/C=C/c2c[nH]c3ccc(Cl)cc23)cc1 | 1 (≈ 2.29 µM) |  |
| O=C(c1ccc(F)cc1)C1C(c2ccc(Cl)cc2)CNC12C(=O)Nc1ccccc12 (stereo unspecified) |  | MIC (Staphylococcus aureus [4]): 30 µg/mL (≈ 71.3 µM) |
| c1ccc2c(-c3c[nH]c4ccccc34)c3c(nc2c1)[nH]c1ccccc13 | 1 (≈ 3 µM) |  |
| CC1=C(C(=O)O)N2C(=O)[C@@H](NC(=O)[C@H](N)c3ccccc3)[C@H]2SC1 [CEPHALEXIN ANHYDROUS] | 72 (≈ 207 µM) |  |
| Fc1ccc(C(c2c[nH]c3ccc(Br)cc23)c2c[nH]c3ccc(Br)cc23)cc1 | 1 (≈ 2.01 µM) |  |
| Clc1ccc2c(Cl)cc(-c3c[nH]c4ccc(Br)cc34)nc2c1 | < 1 |  |
| N=C(N)N/N=C/c1cn(S(=O)(=O)c2ccccc2)c2ccc(-c3ccc(C(F)(F)F)cc3)cc12 | 3.13 (≈ 6.45 µM) |  |
| N=C(N)N/N=C/c1cn(S(=O)(=O)c2ccccc2)c2ccc(-c3cccc(OC(F)(F)F)c3)cc12 | 3.13 (≈ 6.24 µM) |  |
| Fc1ccc(Nc2nnc(Cc3c[nH]c4ccccc34)s2)c(F)c1 | 50 (≈ 146 µM) |  |
| CCCCn1cc(Br)c2c3c(-c4ccc(C)cc4)onc3ccc21 | 4.3 (≈ 11.2 µM) |  |
| Fc1ccc2[nH]cc(-c3ccc4cc(Cl)ccc4n3)c2c1 | 0.62 (≈ 2.09 µM) |  |
| Cc1ccc(C(=O)OC[C@H]2O[C@H](n3c(-c4cc5ccccc5[nH]4)c(CC(=O)N(CC(=O)O)Cc4ccccc4)c4ccccc43)CC2OC(=O)c2ccc(C)cc2)cc1 (stereo partly specified) |  | MIC (Staphylococcus aureus [5]): 13 µg/mL (≈ 16.5 µM); MIC (Staphylococcus aureus [6]): 13 µg/mL (≈ 16.5 µM); MIC (Staphylococcus aureus [7]): 13 µg/mL (≈ 16.5 µM); MIC (Staphylococcus aureus [8]): 13 µg/mL (≈ 16.5 µM); MIC (Staphylococcus aureus [9]): 13 µg/mL (≈ 16.5 µM); MIC (Staphylococcus aureus [10]): 13 µg/mL (≈ 16.5 µM); MIC (Staphylococcus aureus [11]): 13 µg/mL (≈ 16.5 µM) |
| CC[C@H]1OC(=O)[C@H](C)[C@@H](O[C@H]2C[C@@](C)(OC)[C@@H](O)[C@H](C)O2)[C@H](C)[C@@H](O[C@@H]2O[C@H](C)C[C@H](N(C)C)[C@H]2O)[C@](C)(O)C[C@@H](C)C(=O)[C@H](C)[C@@H](O)[C@]1(C)O [ERYTHROMYCIN] | 32 (≈ 43.6 µM) |  |
| CCn1cc(Br)c2c3c(-c4ccc(Cl)cc4)onc3ccc21 | 4.3 (≈ 11.4 µM) |  |
| COc1ccc(C2C([N+](=O)[O-])C(c3ccccc3)NC23C(=O)Nc2ccccc23)cc1 (stereo unspecified) |  | MIC (Staphylococcus aureus [12]): 5 µg/mL (≈ 12 µM) |
| Clc1ccc(Nc2nnc(Cc3c[nH]c4ccccc34)s2)c(Cl)c1 | 25 (≈ 66.6 µM) |  |
| CCCNc1nnc(Cc2c[nH]c3ccccc23)s1 | 6.25 (≈ 22.9 µM) |  |
| Brc1ccc2[nH]cc(C3Nc4ccc(I)cc4[C@H]4OCO[C@@H]34)c2c1 (stereo partly specified) | 0.31 (≈ 0.624 µM) |  |
| Cc1ccc(-c2onc3ccc4c(c(Br)cn4C(C)(C)C)c23)cc1 | 4.3 (≈ 11.2 µM) |  |
| Fc1cccc(Nc2nnc(Cc3c[nH]c4ccccc34)s2)c1 | 25 (≈ 77.1 µM) |  |
| CC1(C)S[C@@H]2[C@H](NC(=O)[C@H](N)c3ccccc3)C(=O)N2[C@H]1C(=O)OCOC(=O)[C@@H]1N2C(=O)C[C@H]2S(=O)(=O)C1(C)C [SULTAMICILLIN] | 25 (≈ 42 µM) |  |
| COC(=O)c1ccc(-c2ccc3c(c2)c(/C=N/NC(=N)N)cn3S(=O)(=O)c2ccccc2)cc1 | 3.13 (≈ 6.58 µM) |  |
| COc1ccc2nc3[nH]c4ccccc4c3c(-c3c[nH]c4ccccc34)c2c1 | 4 (≈ 11 µM) |  |
| Clc1ccc2c(c1)[C@H]1OCO[C@H]1C(c1c[nH]c3ccc(Br)cc13)N2 (stereo partly specified) | 0.31 (≈ 0.764 µM) |  |
| CCOC(=O)CN(CCc1c(I)n([C@@H]2CC(OC(=O)c3ccc(C)cc3)[C@@H](COC(=O)c3ccc(C)cc3)O2)c2ccccc12)Cc1ccccc1 (stereo partly specified) |  | MIC (Staphylococcus aureus [5]): 6 µg/mL (≈ 7.36 µM); MIC (Staphylococcus aureus [6]): 6 µg/mL (≈ 7.36 µM); MIC (Staphylococcus aureus [7]): 6 µg/mL (≈ 7.36 µM); MIC (Staphylococcus aureus [8]): 6 µg/mL (≈ 7.36 µM); MIC (Staphylococcus aureus [9]): 6 µg/mL (≈ 7.36 µM); MIC (Staphylococcus aureus [10]): 6 µg/mL (≈ 7.36 µM); MIC (Staphylococcus aureus [11]): 6 µg/mL (≈ 7.36 µM) |

— ChEMBL document CHEMBL5230084, “Indole-based derivatives as potential antibacterial activity against methicillin-resistance Staphylococcus aureus (MRSA)” (Eur J Med Chem, 2020)
